Measured values published in patent US20240108654A1, “COMBINATION OF A T CELL THERAPY AND A DGK INHIBITOR” (Juno Therapeutics, Inc., priority 2021, published 2024).

Experiments:
[1] = tested on: anti-CD19 CAR-expressing T cells; experiment: Rescue treatment of chronically stimulated CAR-T cells: cytolytic activity, 3D tumor spheroids; type: cell-based, human; settings: rescue treatment during co-culture; A549.CD19 and Granta-519 spheroids, day 9
Protocol: (§1) Anti-CD19 CAR-expressing T cells, produced as described in Example 1, were chronically stimulated with plate-bound CAR-specific anti-idiotypic antibody for seven days as described in Example 2, but in the absence of Compound 17 during chronic stimulation. Instead, chronically stimulated CAR T cells were treated with Compound 17 during re-challenge with CD19-expressing tumor cells, after which cytolytic activity and cytokine production were assessed.
Cytolytic activity also was assessed in CD19-expressing tumor spheroid cultures incubated with chronically stimulated CAR-T cells in the presence of DGKi. A549 CD19+ tumor spheroids or Granta-519 tumor spheroids were incubated with the anti-CD19 CAR-expressing T cells at an effector to target ratio of 1:2 for up to 14 days in the presence of DGKi (0-1000 nM). The tumor spheroids were engineered to express a red fluorescent dye to permit monitoring of tumor cell lysis by microscopy during the assay. Cytolytic activity was assessed by monitoring fluorescence over time, and the tumor volume (normalized to time zero) was measured as the number of red calibrated units (RCU)×μm^2 area. […] Duplicate values for cell compositions manufactured from the two different healthy donors are shown.

[2] = tested on: anti-CD19 CAR-expressing T cells; experiment: Cytolytic activity of CAR-T cells concurrently treated during chronic stimulation, 2D re-challenge with CD19-expressing lymphoma cells; type: cell-based, human; settings: concurrent treatment during chronic stimulation; 2D re-challenge with K562.CD19, Granta-519, Raji without compound; higher concentrations
Protocol: (§2) To simulate conditions of chronic stimulation, approximately 20,000 anti-CD19 CAR-expressing T cells of a combined CAR-T cell composition produced as described in Example 1 from two healthy adult donors were incubated with 30 μg/mL of plate-bound CAR-specific anti-idiotypic antibody (see, e.g., WO2018/023100) at 37° C. for a period of seven days. During this seven-day period, engineered CAR T cells were concurrently treated with Compound 17 (0.1-1000 nM) or a vehicle control added at day 0.
(§3) Stimulated CAR T cells were then re-challenged with CD19-expressing tumor cells or tumor spheroids in the absence of Compound 17, and cytolytic activity and cytokine production were assessed.
To assess cytolytic function, the stimulated CAR-T cell composition was co-cultured with various CD19-expressing lymphoma cells at a 2.5:1 effector:target ratio. The tumor cells were engineered to express NucLight Red (NLR) and tumor cell number was monitored by Incucyte®. […] Duplicate values for cell compositions manufactured from the two different healthy donors are shown.

[3] = tested on: anti-CD19 CAR-expressing T cells; experiment: T cell viability in acute stimulation assays; type: cell-based, human
[4] = tested on: anti-CD19 CAR-expressing T cells; experiment: Cytokine production (MSD) of CAR-T cells concurrently treated during chronic stimulation, 2D co-culture; type: cell-based, human; settings: concurrent treatment during chronic stimulation; 48 hours 2D co-culture with K562.CD19, Granta-519, Raji
Protocol: as §2, §3
Supernatant was collected after 48 hours from the above co-cultures of chronically stimulated CAR-expressing T cells and CD19-expressing tumor cells. Cytokine production was measured from the supernatant by meso scale discovery (MSD) analysis of the collected cell supernatants. […] Duplicate values for cell compositions manufactured from the two different healthy donors are shown.

anti-HPV16 eTCR T cells = experiment: Rescue treatment of chronically stimulated eTCR T cells: cytolytic function against HPV-expressing CaSki cells; type: cell-based, human; settings: 100 nM compound during co-culture, 2.5:1 effector:target; eTCR cells pre-stimulated with 10 or 20 μg/mL anti-Vbeta
Text: Primary human CD4+ and CD8+ T cells were isolated from healthy donors by immunoaffinity-based methods. The isolated CD4+ and CD8+ T cells were combined and stimulated with an anti-CD3/anti-CD28 reagent, and then were transduced with a lentiviral vector encoding an anti-human papillomavirus 16 (anti-HPV16) eTCR. The nucleotide sequences encoding the beta chain and the alpha chain of the eTCR were separated by a sequence encoding a 2A ribosome skip element. Following transduction, the cells were cultured in media containing human serum and cytokines for 9-10 days prior to further assessment. To assess the effects of rescue treatment with Compound 17 on cytolytic function, eTCR cells were stimulated for six days using 10 μg/mL or 20 μg/mL plate-bound antibody against the TCR Vbeta chain in the absence of Compound 17. Following chronic stimulation, the eTCR-T cells were co-cultured with HPV-expressing CaSki cells at a 2.5:1 effector:target ratio in the presence of Compound 17 at 100 nM. As a control, chronically stimulated eTCR cells were co-cultured with CaSki cells in the absence of Compound 17. The CaSki cells were transduced with NucLight Red (NLR) and tumor cell number was monitored by Incucyte®.

[5] = tested on: anti-CD19 CAR-expressing T cells; experiment: Activation phenotype of CAR-T cells chronically stimulated with concurrent compound treatment; type: cell-based, human; settings: seven-day chronic stimulation, concurrent compound 0.1-1000 nM
Protocol: as §2

[6] = tested on: anti-CD19 CAR-expressing T cells; experiment: Cytokine production (MSD) in co-culture of CAR-T cells and CD19-expressing tumor cells in presence of compound; type: cell-based, human; settings: 48 hours co-culture with K562.CD19, Granta-519, Raji cells, compound present
Protocol: Supernatant was collected after 48 hours from the above co-cultures of CAR-expressing T cells and CD19-expressing tumor cells in the presence of Compound 17. Cytokine production was measured from the supernatant by meso scale discovery (MSD) analysis of the collected cell supernatants.

[7] = tested on: anti-CD19 CAR-expressing T cells; experiment: Activated effector phenotype of CD4+ and CD8+ CAR-expressing cells under acute stimulation; type: cell-based, human
Human venous whole blood = experiment: Human whole blood IFN-γ assay; type: cell-based; settings: anti-CD3 and anti-CD28 1 μg/mL each, 24 hours; 3 μM reference compound as 100% activation; read-out: INFg Whole Blood Normalized Agonist EC50
Protocol: Human venous whole blood (22.5 μL per well), obtained from healthy donors, was pre-treated with compounds for one hour at 37° C. in a humidified 95% air/5% CO2 incubator. The blood was stimulated with 2.5 μL anti-human CD3 and anti-CD28 mAb at a final concentration of 1 μg/mL each for 24 hours at 37° C. IFN-γ in the supernatants was measured using ALphLISA kit (Cat #AL217).

[8] = tested on: anti-CD19 CAR-expressing T cells; experiment: Rescue treatment of chronically stimulated CAR-T cells: cytolytic activity, 2D co-culture with CD19-expressing lymphoma cells; type: cell-based, human; settings: rescue treatment during 2D co-culture, higher concentrations
Protocol: as §1
The chronically stimulated CAR-T cells were incubated with various CD19-expressing lymphoma cells at a 2.5:1 effector:target ratio in the presence of DGKi (0-1000 nM). The tumor cells were labeled with NucLight Red (NLR) and tumor cell number was monitored by Incucyte®.

[9] = tested on: anti-CD19 CAR-expressing T cells; experiment: T cell proliferation during acute stimulation with plate-bound anti-CAR anti-idiotypic antibody (Incucyte confluence); type: cell-based, human; settings: 30 μg/mL plate-bound anti-idiotypic antibody, seven days, compound present during stimulation
Protocol: T cell proliferation during stimulation with 30 μg/mL of plate-bound anti-CAR anti-idiotypic antibody in the presence of Compound 17 was monitored for seven days using an Incucyte imaging system. Cell proliferation was monitored by analyzing the occupied area (% confluence) of cell images over time; as cells proliferate, the confluence increases.
Triplicate values for cell compositions manufactured from the two different healthy donors are shown.

CC[C@H]1CN([C@@H](CC)c2ccc(C(F)(F)F)cc2)[C@H](CC)CN1c1nc(=O)n(C)c2ccc(C#N)nc12 [Compound 17, 4-((2S,5R)-2,5-diethyl-4-((S)-1-(4-(trifluoromethyl)phenyl)propyl)piperazin-1-yl)-1-methyl-2-oxo-1,2-dihydropyrido[3,2-d]pyrimidine-6-carbonitrile]
CAR-T cell cytolytic activity (normalized tumor volume) [1]: improved the cytolytic activity | CAR-T cell cytolytic activity (tumor cell number) [2]: decreased the cytolytic activity | T cell viability [3]: no impact | production of IFNγ, IL-2 and TNFα in supernatant [4]: dose-dependent increase in production of all three cytokines | cytolytic function of chronically stimulated eTCR cells (CaSki tumor cell number) (anti-HPV16 eTCR T cells): able to improve cytolytic function | populations of highly activated CAR-T cells (CD69, PD-1 high) [5]: increased populations of highly activated CAR-T cells | production of IFNγ, IL-2 and TNFα in supernatant [6]: dose-dependent increase in production of all three cytokines | number of CD4+ and CD8+ CAR-expressing cells having an activated effector phenotype [7]: increased | EC50 (Human venous whole blood): 20 nM | CAR-T cell cytolytic activity (tumor cell number) ([8]; Granta-519 cells): improved the cytolytic activity | CAR-T cell cytolytic activity (tumor cell number) ([8]; K562.CD19 cells): improved the cytolytic activity | T cell proliferation (% confluence) [9]: did not affect T cell proliferation
